In patent publication US20230126711A1, “ENTERIC NITRERGIC NEURONS AND METHODS OF USING THE SAME” (The Regents of the University of California, priority 2020, published 2023):

System: NOS1
Assay: Percentage of NO neurons in treated cultures by flow cytometry for NOS1
Assay type: cell-based, human
Details: flow cytometry for NOS1, compared to no treatment
Description: NO neurons quantified using flow cytometry for NOS1.
Option 1 (for 3-D Culture): • 30. On day 15, ENC spheroids are gathered in the center of the wells using a swirling motion and neural crest medium is removed using a P1000 micropipette in slow circular motion, avoiding the free-floating spheroids. • 31. Spheroids are fed with the same volume of ENC medium containing PP121 (1-5 μM), GDNF (10 ng/ml), ascorbic acid (100 μM), N2 supplement (10 μl/ml), B27 supplement (20 μl/ml), glutagro (10 μl/ml), and MEM NEAAs (10 μl/ml) in neurobasal medium. • 32. Cells are fed with ENC every other day until day 30-40, after which, feeding frequency can be reduced to once or twice a week but with a higher volume of medium.
Option 2 (for 2-D Culture): • 30. On day 15, ENC spheroids are gathered in the center of the wells using a swirling motion and neural crest medium is removed using a P1000 micropipette in slow circular motion, avoiding the free-floating spheroids. • 31. After washing the spheroids with PBS, accutase is added and plates are incubated for 30 minutes at 37° C. to dissociate the spheroids. • 32. Then, remaining spheroids are broken by pipetting ENC medium. • 33. ENC contains PP121 (1-5 μM), GDNF (10 ng/ml), ascorbic acid (100 μM), N2 supplement (10 μl/ml), B27 supplement (20 μl/ml), glutagro (10 μl/ml), and MEM NEAAs (10 μl/ml) in neurobasal medium. • 34. […]

| Compound | percentage of NO neurons (NOS1 induction) |
| --- | --- |
| Nc1ncnc2c1c(-c1cnc3[nH]ccc3c1)nn2C1CCCC1 [PP121] | enhances NOS1 induction efficiency |
| PDGF | reduced the percentage of NO neurons |
